The target of one data set is EqGGT (Equus caballus, UniProt A0A9L0SYL6). The data set is described as follows: GGT activity assay (colorimetric, GpNA donor / glycyl-glycine acceptor), IC50. It counts as biochemical, horse. Here is the method:
(§1) GGT activity assay: GGT activity was determined by a colorimetric test. The analysis buffer contains 100 mM Tris-HCl pH 7.8 or PBS 1X pH 7.4. Each reaction contains 1 mM of γ-glutamyl-para-nitroanilide (GpNA) as a donor substrate and 40 mM glycyl-glycine (glygly) as an acceptor substrate. The enzyme GGT purified from murine tissues or human cells, or from equine sources (purchased from Sigma) was added at the end to start the test. The formation of the product, p-nitroaniline, was continuously monitored at room temperature at 405 nm using a Bio-Rad 680 microplate reader with the Microplate Manager 5.2 software (Bio-Rad). One unit of GGT activity was defined as the amount of GGT that released 1 µmοl of p-nitroaniline/min at room temperature. The molecules tested as inhibitors, Erg, DON and DTT were purchased by Sigma Aldrich.
(§2) The enzymatic activity assays were carried out using the Tate & Meister spectrophotometric assay, using the γ-glutamyl-para-nitroanilide chromogen (GpNA) as a donor substrate, glycyl-glycine as a substrate and a purified commercial GGT solution as a biocatalyst from horse (EqGGT) with a high % identity with the human one. These assays were also performed in the presence of GGT isolated directly from the hepatic mouse tissues and/or from human cell cultures (hGGT). The inhibition of EqGGT and hGGT by 5-thio and ovothiol A was compared with that of Erg and the GGT DON commercial inhibitor. […] Instead, the already known GGT inhibitors are toxic at much lower concentrations.

A further data set concerns the target GGT (Equus caballus, UniProt A0A9L0SYL6). The data set is described as follows: Kinetics of GGT inhibition (Ki) varying donor GpNA or acceptor Gly-Gly concentration. It counts as biochemical, horse. As to conditions: for type of inhibition: both with respect to the acceptor substrate and to the donor substrate, Vmax decreases, km almost unchanged; for Ki: average of Michaelis-Menten and Lineweaver-Burk. Here is the method: as §1, §2
The inhibition constants Ki and GGT inactivation rate for 5-thio and ovothiol A were determined by varying both the concentrations of the GpNA donor substrate and maintaining the Gly-Gly acceptor concentrations fixed and vice versa, as shown in Figure 2. Ki (dissociation constant related to E) was calculated as a function of Vmax. For all the compounds the Vmax decreases as the concentration of inhibitor increases, while the km remains almost unchanged.

The next data set deals with HEK293. Kind of data set: Cell toxicity in human cell lines. The settings on record: up to concentrations of 200 µM; HEK293 (renal embryonic origin). It counts as cell-based.
A further data set has as its system keratinocytes HaCat. The data set is described as follows: Cell toxicity in human cell lines. It counts as cell-based. The settings on record: up to concentrations of 200 µM.
The mark [1] stands for this setting: read-out: Ki (GpNA), varying donor substrate GpNA, Gly-Gly fixed.

Structures are written as SMILES. Like-named read-outs stand apart in the source and are kept apart here.

Sequence of EqGGT (A0A9L0SYL6 entry or part of it): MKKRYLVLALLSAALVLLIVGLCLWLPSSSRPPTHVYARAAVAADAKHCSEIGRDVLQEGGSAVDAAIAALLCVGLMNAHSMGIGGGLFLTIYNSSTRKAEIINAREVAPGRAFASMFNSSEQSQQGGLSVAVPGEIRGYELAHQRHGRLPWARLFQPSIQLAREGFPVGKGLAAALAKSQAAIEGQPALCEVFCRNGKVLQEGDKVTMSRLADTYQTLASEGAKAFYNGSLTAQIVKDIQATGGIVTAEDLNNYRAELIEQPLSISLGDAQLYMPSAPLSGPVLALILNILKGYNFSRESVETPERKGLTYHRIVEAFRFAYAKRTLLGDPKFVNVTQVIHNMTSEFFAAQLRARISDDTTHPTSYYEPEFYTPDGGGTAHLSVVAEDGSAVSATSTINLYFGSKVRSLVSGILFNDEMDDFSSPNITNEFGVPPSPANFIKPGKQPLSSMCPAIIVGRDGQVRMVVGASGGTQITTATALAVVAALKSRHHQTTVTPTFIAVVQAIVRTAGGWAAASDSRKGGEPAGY
Sequence of GGT (A0A9L0SYL6 entry or part of it): as above

As a reminder, the IC50 is the midpoint of a concentration-inhibition curve. Usually Ki stands for a dissociation constant, usually derived from enzyme kinetics or from competition with a known ligand. The compound `C[N+](C)(C)C(Cc1cnc(S)[nH]1)C(=O)[O-]` (stereo not drawn) [Erg, N-alpha-trimethyl-2-thiohistidine, reference compound] had an IC50 at EqGGT (concentration inducing 50% inhibition of GGT activity, 1 mM GpNA, 40 mM glycyl-glycine, ovothiol A and 5-thio as disulfide) of 277 µM. Besides, at GGT, the type of inhibition entry is “non-competitive inhibitors”. For the same compound, on GGT (setting [1]), the Ki amounted to 229 ± 53.9 µM.
At EqGGT, `[N-]=[N+]=CC(=O)CC[C@H](N)C(=O)O` [DON, 6-diazo-5-oxo norleucine, reference compound] registered an IC50 of 250 µM. The Ki at GGT (setting [1]) is 156 ± 15.3 µM; on GGT (read-out: Ki (gly-gly), varying acceptor substrate Gly-Gly, GpNA fixed), 200 ± 62.7 µM.
Turning to `NC(Cc1[nH]cnc1SSc1nc[nH]c1CC(N)C(=O)O)C(=O)O` (stereo not shown), the IC50 at EqGGT (concentration inducing 50% inhibition of GGT activity, 1 mM GpNA, 40 mM glycyl-glycine, ovothiol A and 5-thio as disulfide, read-out: IC50) was determined as 13 µM. In addition, the “times more active than Erg and DON in inhibiting GGT activity” value on EqGGT (disulfide forms) is given as 10-20 times. For the same compound, the type of inhibition result on GGT is listed as “non-competitive inhibitors”. Moreover, the Ki at GGT (varying acceptor substrate Gly-Gly, GpNA fixed, read-out: Ki (gly-gly)) was determined as 17.4 ± 6.1 µM; at GGT (varying donor substrate GpNA, Gly-Gly fixed, read-out: Ki (GpNA)), 6.9 ± 2.91 µM. For the same compound, the cell toxicity result with HEK293 and in the data set on keratinocytes HaCat was “no cell toxicity” each time.
